In patent publication US20260124183A1, “METHODS OF TREATING SPINOCEREBELLAR ATAXIAS” (Biohaven Therapeutics Ltd., priority 2022, published 2026):
Structures can show the parent of a compound that is named as a salt.

Key:
[1] = Solubility of drug substance in water; format: physicochemical
[2] = tested on: spinocerebellar ataxia (SCA); experiment: Phase 3 clinical study of troriluzole in spinocerebellar ataxia: f-SARA total score change; format: in vivo, human; settings: for LS mean change difference in f-SARA score from baseline vs placebo: Week 48, 200 mg daily
Procedure: Phase 3 Clinical Study for Troriluzole in Adult Subjects with Spinocerebellar Ataxia
(§1) The purpose of this study is to compare the efficacy of Troriluzole (200 mg once daily) versus placebo after 48 weeks of treatment in subjects with spinocerebellar ataxia (SCA).
(§2) • Study Type: Interventional (Clinical Trial) • Actual Enrollment: 218 participants • Allocation: Randomized • Intervention Model: Parallel Assignment • Masking: Triple (Participant, Care Provider, Investigator) • Primary Purpose: Treatment • Official Title: A Phase III, Long-Term, Randomized, Double-blind, Placebo-controlled Trial of Troriluzole in Adult Subjects With Spinocerebellar Ataxia.
(§3) • Arm • Experimental: Arm 1: BHV-4157 • Troriluzole 200 mg by mouth • Placebo Comparator: Arm 2: Placebo • Placebo 200 mg by mouth • Intervention/Treatment • Drug: troriluzole • 200 mg by mouth • Drug: placebo • 200 mg by mouth
• 1. Change from Baseline in the total score of the Modified Functional Scale for the Assessment and Rating of Ataxia (f-SARA) after 48 weeks of treatment. [Time Frame: Baseline to week 48] • An increase in the total score indicates a worsening of symptoms.
• 1. Subjects with a known or suspected diagnosis of the following specific hereditary ataxias: SCA1, SCA2, SCA3, SCA6, SCA7, SCA8 and SCA10; currently only enrolling SCA 1, SCA2, SCA3, SCA7, and SCA10 (the cap has been met for SCA6 and SCA8 (on May 31, 2019)); • a. A subject should have a confirmed genotypic diagnosis from a CLIA certified lab (can produce test results); or • b. A subject has a family member that has a confirmed genotypic diagnosis from a CLIA certified lab (can produce test results) and must be willing to undergo genetic testing to confirm underlying SCA diagnosis; or • c. A subject has a confirmed genotypic diagnosis from a lab that is not CLIA certified and must be willing to undergo genetic testing to confirm underlying SCA diagnosis; or • d. […] Ability to ambulate 8 meters without human assistance (canes and other devices allowed). • 3. Screening f-SARA total score ≥3. • 4. Score of ≥1 on gait subsection of the f-SARA. • 5. Determined by the investigator to be medically stable at Baseline/randomization as assessed by medical history, physical examination, laboratory test results, and electrocardiogram testing.
• 1. A ≥2-point difference on the Modified Functional SARA score between screening and baseline. • 2. MMSE score <24. • 3. […] A prominent spasticity or dystonia that, in the opinion of the investigator, will compromise the ability of the SARA instrument to assess underlying ataxia severity. • 5. A score of 4 on any individual item (Items 1-4) of the f-SARA. • 6. Subjects should be excluded at screening or baseline if medical conditions have arisen or there is a change in disease status that could confound the ability of the SARA to accurately reflect changes in ataxia severity. • 7. Active liver disease or a history of hepatic intolerance to medications that in the investigator's judgment, is medically significant.

[3] = tested on: spinocerebellar ataxia (SCA); experiment: Phase 3 clinical study: adverse events of fall, safety and tolerability; format: in vivo, human
Procedure: as §1, §2, §3
• 1. Change from baseline in Patient Impression of Function and Activities of Daily Living Scale (PIFAS) score at Randomization Phase Week 48. [Time Frame: Baseline to week 48] • An increase in the total score indicates a worsening of symptoms. • 2. Change from baseline in Activities of Daily Living Scale from the Friedreich's Ataxia Rating Scale (FARS-ADL) at Randomization Week 48. [Time Frame: Baseline to week 48] • An increase in the total score indicates a worsening of symptoms. • 3. Change from baseline in Functional Staging for Ataxia from the Friedreich's Ataxia Rating Scale (FARS-FUNC) at Randomization Phase Week 48. [Time Frame: Baseline to week 48] • An increase in the total score indicates a worsening of symptoms. • 4. Frequency of subjects with the following adverse events (AEs) identified from case report forms: AEs (by severity; by relationship to study drug; overall); SAEs; and AEs leading to treatment discontinuation. [Time Frame: Baseline to week 48]

## CN(CC(=O)Nc1nc2ccc(OC(F)(F)F)cc2s1)C(=O)CNC(=O)CN [troriluzole, 2-amino-N-({methyl-[(6-trifluoromethoxy-benzothiazol-2-ylcarbamoyl)-methyl]-carbamoyl}-methyl)-acetamide monohydrate monohydrochloride]
[1]
  solubility in water: freely soluble in water
[2]; SCA3 patient able to walk without assistance at baseline, week 4, 200 mg daily
  LS mean change difference compared to placebo: at least −0.67
[2]; SCA3 patient, week 4, 200 mg daily
  LS mean change difference compared to placebo: at least −0.46
[2]; SCA3 patient, week 8, 200 mg daily (first statement)
  LS mean change difference compared to placebo: at least −0.12
[2]; SCA3 patient, week 8, 200 mg daily (subgroup not given)
  LS mean change difference compared to placebo: at least −0.33
[2]; SCA3 patient, week 12, 200 mg daily (first statement)
  LS mean change difference compared to placebo: at least −0.46
[2]; SCA3 patient, week 12, 200 mg daily (subgroup not given)
  LS mean change difference compared to placebo: at least −0.71
[2]; SCA3 patient, week 24, 200 mg daily (first statement)
  LS mean change difference compared to placebo: at least −0.17
[2]; SCA3 patient, week 24, 200 mg daily (subgroup not given)
  LS mean change difference compared to placebo: at least −0.40
[2]; SCA3 patient, week 36, 200 mg daily (first statement)
  LS mean change difference compared to placebo: at least −0.72
[2]; SCA3 patient, week 36, 200 mg daily (subgroup not given)
  LS mean change difference compared to placebo: at least −0.55
[2]; SCA3 patients able to walk without assistance at baseline (f-SARA Gait Item score=1), nominal p=0.031, 95% CI −1.36, −0.07
  LS mean change difference in f-SARA score from baseline vs placebo: −0.71
[2]; SCA3 subgroup, nominal p=0.053, 95% CI −1.12, 0.01, post-hoc
  LS mean change difference in f-SARA score from baseline vs placebo: −0.55
[2]; overall SCA population, 200 mg once daily vs placebo, 48 weeks, p=0.76
  primary endpoint, change from baseline to Week 48 on f-SARA (statistical outcome): did not reach statistical significance
[2]; overall study population N=213, mean baseline score 4.9, 200 mg once daily, placebo 5.2
  f-SARA score at the 48-week endpoint: 5.1
[3]; SCA3 genotype, patient reported falls as adverse events, nominal p=0.04
  reduction of fall risk versus placebo: approximately 50%
[3]; SCA3 genotype, placebo 32%
  AE incidence of falls: 16%
[3]; all genotypes, patients able to ambulate at baseline (f-SARA Gait Item score=1), nominal p=0.043
  reduction of fall risk versus placebo: approximately 59%
[3]; all genotypes, patients able to ambulate at baseline (f-SARA Gait Item score=1), placebo 23%
  AE incidence of falls: 10%
[3]; overall, Phase 3 study
  safety and tolerability profile: favorable safety and tolerability profile
